Tested on: Metabolism protein genes
Test: DNA chip mRNA expression in yeast, metabolism protein genes (Table 7)
Type: cell-based, Saccharomyces cerevisiae S288C
Procedure, shortened: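 Ratios compare mRNA levels in stressed and control S. cerevisiae. Each toxicant was applied for two hours to log-phase cultures at 25° C. at a sub-lethal, growth-inhibiting level; fluorescent cDNA (Cy3- or Cy5-dUTP) was hybridized to a genome-wide yeast chip for over 12 h at 65° C.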

`S=C([S-])NCCNC(=S)[S-].[Zn+2]` [(11), zinc N,N′-ethylenebis(dithiocarbamate)] was tested, and the “The level of expressed mRNA in the presence of chemical substance/The level of expressed mRNA in the absence of chemical substance” value (yeast gene YAL012W) was 4.0, the “The level of expressed mRNA in the presence of chemical substance/The level of expressed mRNA in the absence of chemical substance” value (yeast gene YAL038W) was 1.0 and the “level of expressed mRNA in the presence/in the absence of chemical substance” value (yeast gene YBR003W) was 1.3. The “level of expressed mRNA in the presence/in the absence of chemical substance” value (yeast gene YBR011C) was 1.7, the “level of expressed mRNA in the presence/in the absence of chemical substance” value (yeast gene YBR020W) was 1.0 and the “The level of expressed mRNA in the presence of chemical substance/The level of expressed mRNA in the absence of chemical substance” value (yeast gene YBR023C) was 0.9. For the same compound, the “The level of expressed mRNA in the presence of chemical substance/The level of expressed mRNA in the absence of chemical substance” value (yeast gene YBR029C) was 0.7, the “The level of expressed mRNA in the presence of chemical substance/The level of expressed mRNA in the absence of chemical substance” value (yeast gene YBR183W) was 1.9 and the “The level of expressed mRNA in the presence of chemical substance/The level of expressed mRNA in the absence of chemical substance” value (yeast gene YBR222C) was 1.3. The “The level of expressed mRNA in the presence of chemical substance/The level of expressed mRNA in the absence of chemical substance” value (yeast gene YBR256C) was 3.2, the “The level of expressed mRNA in the presence of chemical substance/The level of expressed mRNA in the absence of chemical substance” value (yeast gene YCL009C) was 1.5 and the “The level of expressed mRNA in the presence of chemical substance/The level of expressed mRNA in the absence of chemical substance” value (yeast gene YCL064C) was 1.8. The “level of expressed mRNA in the presence/in the absence of chemical substance” value (yeast gene YCR010C) was 1.1, the “level of expressed mRNA in the presence/in the absence of chemical substance” value (yeast gene YCR034W) was 0.8 and the “The level of expressed mRNA in the presence of chemical substance/The level of expressed mRNA in the absence of chemical substance” value (yeast gene YCR048W) was 1.2. For the same compound, the “The level of expressed mRNA in the presence of chemical substance/The level of expressed mRNA in the absence of chemical substance” value (yeast gene YCR098C) was 1.3, the “The level of expressed mRNA in the presence of chemical substance/The level of expressed mRNA in the absence of chemical substance” value (yeast gene YDR019C) was 1.8 and the “level of expressed mRNA in the presence/in the absence of chemical substance” value (yeast gene YDR050C) was 2.0. The “level of expressed mRNA in the presence/in the absence of chemical substance” value (yeast gene YDR073W) was 1.0, the “level of expressed mRNA in the presence/in the absence of chemical substance” value (yeast gene YDR123C) was 0.6 and the “level of expressed mRNA in the presence/in the absence of chemical substance” value (yeast gene YDR178W) was 2.0. For the same compound, the “level of expressed mRNA in the presence/in the absence of chemical substance” value (yeast gene YDR277C) was 1.2, the “level of expressed mRNA in the presence/in the absence of chemical substance” value (yeast gene YDR284C) was 1.3 and the “level of expressed mRNA in the presence/in the absence of chemical substance” value (yeast gene YDR345C) was 1.5. The “The level of expressed mRNA in the presence of chemical substance/The level of expressed mRNA in the absence of chemical substance” value (yeast gene YDR380W) was 0.4, the “level of expressed mRNA in the presence/in the absence of chemical substance” value (yeast gene YDR400W) was 1.3 and the “level of expressed mRNA in the presence/in the absence of chemical substance” value (yeast gene YDR408C) was 1.7. The “level of expressed mRNA in the presence/in the absence of chemical substance” value (yeast gene YDR483W) was 1.4, the “The level of expressed mRNA in the presence of chemical substance/The level of expressed mRNA in the absence of chemical substance” value (yeast gene YDR497C) was 0.7 and the “The level of expressed mRNA in the presence of chemical substance/The level of expressed mRNA in the absence of chemical substance” value (yeast gene YDR502C) was 1.3. For the same compound, the “The level of expressed mRNA in the presence of chemical substance/The level of expressed mRNA in the absence of chemical substance” value (yeast gene YDR516C) was 2.8, the “level of expressed mRNA in the presence/in the absence of chemical substance” value (yeast gene YEL063C) was 0.8 and the “level of expressed mRNA in the presence/in the absence of chemical substance” value (yeast gene YER015W) was 1.0. For the same compound, the “The level of expressed mRNA in the presence of chemical substance/The level of expressed mRNA in the absence of chemical substance” value (yeast gene YER026C) was 0.9, the “The level of expressed mRNA in the presence of chemical substance/The level of expressed mRNA in the absence of chemical substance” value (yeast gene YER053C) was 2.4 and the “The level of expressed mRNA in the presence of chemical substance/The level of expressed mRNA in the absence of chemical substance” value (yeast gene YER069W) was 1.5. The “level of expressed mRNA in the presence/in the absence of chemical substance” value (yeast gene YER081W) was 1.1, the “The level of expressed mRNA in the presence of chemical substance/The level of expressed mRNA in the absence of chemical substance” value (yeast gene YER096W) was 1.1 and the “level of expressed mRNA in the presence/in the absence of chemical substance” value (yeast gene YER120W) was 1.1. For the same compound, the “The level of expressed mRNA in the presence of chemical substance/The level of expressed mRNA in the absence of chemical substance” value (yeast gene YER178W) was 2.5, the “level of expressed mRNA in the presence/in the absence of chemical substance” value (yeast gene YFL011W) was 2.1 and the “The level of expressed mRNA in the presence of chemical substance/The level of expressed mRNA in the absence of chemical substance” value (yeast gene YFL014W) was 5.0. The “The level of expressed mRNA in the presence of chemical substance/The level of expressed mRNA in the absence of chemical substance” value (yeast gene YFL030W) was 5.4, the “The level of expressed mRNA in the presence of chemical substance/The level of expressed mRNA in the absence of chemical substance” value (yeast gene YFL031W) was 1.2 and the “The level of expressed mRNA in the presence of chemical substance/The level of expressed mRNA in the absence of chemical substance” value (yeast gene YFL056C) was 68.3. For the same compound, the “The level of expressed mRNA in the presence of chemical substance/The level of expressed mRNA in the absence of chemical substance” value (yeast gene YFL057C) was 27.7, the “The level of expressed mRNA in the presence of chemical substance/The level of expressed mRNA in the absence of chemical substance” value (yeast gene YFR015C) was 3.9 and the “The level of expressed mRNA in the presence of chemical substance/The level of expressed mRNA in the absence of chemical substance” value (yeast gene YFR047C) was 2.3. The “level of expressed mRNA in the presence/in the absence of chemical substance” value (yeast gene YGL012W) was 0.6, the “The level of expressed mRNA in the presence of chemical substance/The level of expressed mRNA in the absence of chemical substance” value (yeast gene YGL022W) was 0.8 and the “level of expressed mRNA in the presence/in the absence of chemical substance” value (yeast gene YGL115W) was 1.0. The “The level of expressed mRNA in the presence of chemical substance/The level of expressed mRNA in the absence of chemical substance” value (yeast gene YGL126W) was 1.0, the “level of expressed mRNA in the presence/in the absence of chemical substance” value (yeast gene YGL205W) was 0.4 and the “The level of expressed mRNA in the presence of chemical substance/The level of expressed mRNA in the absence of chemical substance” value (yeast gene YGL209W) was 0.8. The “The level of expressed mRNA in the presence of chemical substance/The level of expressed mRNA in the absence of chemical substance” value (yeast gene YGL248W) was 1.0, the “The level of expressed mRNA in the presence of chemical substance/The level of expressed mRNA in the absence of chemical substance” value (yeast gene YGR037C) was 1.4 and the “The level of expressed mRNA in the presence of chemical substance/The level of expressed mRNA in the absence of chemical substance” value (yeast gene YGR055W) was 1.5. The “level of expressed mRNA in the presence/in the absence of chemical substance” value (yeast gene YGR096W) was 0.8, the “level of expressed mRNA in the presence/in the absence of chemical substance” value (yeast gene YGR191W) was 1.6 and the “The level of expressed mRNA in the presence of chemical substance/The level of expressed mRNA in the absence of chemical substance” value (yeast gene YGR194C) was 0.7. The “level of expressed mRNA in the presence/in the absence of chemical substance” value (yeast gene YGR204W) was 2.1, the “The level of expressed mRNA in the presence of chemical substance/The level of expressed mRNA in the absence of chemical substance” value (yeast gene YGR256W) was 2.7 and the “The level of expressed mRNA in the presence of chemical substance/The level of expressed mRNA in the absence of chemical substance” value (yeast gene YGR282C) was 1.5. The “level of expressed mRNA in the presence/in the absence of chemical substance” value (yeast gene YGR288W) was 1.3, the “level of expressed mRNA in the presence/in the absence of chemical substance” value (yeast gene YHR025W) was 2.1 and the “The level of expressed mRNA in the presence of chemical substance/The level of expressed mRNA in the absence of chemical substance” value (yeast gene YHR111W) was 1.9. For the same compound, the “level of expressed mRNA in the presence/in the absence of chemical substance” value (yeast gene YHR123W) was 1.2, the “The level of expressed mRNA in the presence of chemical substance/The level of expressed mRNA in the absence of chemical substance” value (yeast gene YHR137W) was 0.6 and the “The level of expressed mRNA in the presence of chemical substance/The level of expressed mRNA in the absence of chemical substance” value (yeast gene YHR174W) was 1.4. The “The level of expressed mRNA in the presence of chemical substance/The level of expressed mRNA in the absence of chemical substance” value (yeast gene YHR176W) was 1.2, the “level of expressed mRNA in the presence/in the absence of chemical substance” value (yeast gene YHR210C) was 1.5 and the “level of expressed mRNA in the presence/in the absence of chemical substance” value (yeast gene YIL006W) was 1.0. The “The level of expressed mRNA in the presence of chemical substance/The level of expressed mRNA in the absence of chemical substance” value (yeast gene YIL045W) was 1.2, the “The level of expressed mRNA in the presence of chemical substance/The level of expressed mRNA in the absence of chemical substance” value (yeast gene YIL107C) was 0.9 and the “The level of expressed mRNA in the presence of chemical substance/The level of expressed mRNA in the absence of chemical substance” value (yeast gene YIL154C) was 1.2. For the same compound, the “The level of expressed mRNA in the presence of chemical substance/The level of expressed mRNA in the absence of chemical substance” value (yeast gene YIL155C) was 1.3, the “The level of expressed mRNA in the presence of chemical substance/The level of expressed mRNA in the absence of chemical substance” value (yeast gene YIL167W) was 1.9 and the “The level of expressed mRNA in the presence of chemical substance/The level of expressed mRNA in the absence of chemical substance” value (yeast gene YIR017C) was 4.2. The “The level of expressed mRNA in the presence of chemical substance/The level of expressed mRNA in the absence of chemical substance” value (yeast gene YIR034C) was 3.0, the “The level of expressed mRNA in the presence of chemical substance/The level of expressed mRNA in the absence of chemical substance” value (yeast gene YIR036C) was 2.8 and the “The level of expressed mRNA in the presence of chemical substance/The level of expressed mRNA in the absence of chemical substance” value (yeast gene YJL031C) was 1.9. The “The level of expressed mRNA in the presence of chemical substance/The level of expressed mRNA in the absence of chemical substance” value (yeast gene YJL068C) was 3.2, the “The level of expressed mRNA in the presence of chemical substance/The level of expressed mRNA in the absence of chemical substance” value (yeast gene YJL088W) was 0.9 and the “The level of expressed mRNA in the presence of chemical substance/The level of expressed mRNA in the absence of chemical substance” value (yeast gene YJL099W) was 0.9. For the same compound, the “level of expressed mRNA in the presence/in the absence of chemical substance” value (yeast gene YJL121C) was 1.1, the “level of expressed mRNA in the presence/in the absence of chemical substance” value (yeast gene YJL167W) was 1.2 and the “The level of expressed mRNA in the presence of chemical substance/The level of expressed mRNA in the absence of chemical substance” value (yeast gene YJL172W) was 1.4. For the same compound, the “level of expressed mRNA in the presence/in the absence of chemical substance” value (yeast gene YJL216C) was 1.1, the “The level of expressed mRNA in the presence of chemical substance/The level of expressed mRNA in the absence of chemical substance” value (yeast gene YJL219W) was 2.3 and the “level of expressed mRNA in the presence/in the absence of chemical substance” value (yeast gene YJR077C) was 1.6. For the same compound, the “The level of expressed mRNA in the presence of chemical substance/The level of expressed mRNA in the absence of chemical substance” value (yeast gene YJR137C) was 2.0, the “level of expressed mRNA in the presence/in the absence of chemical substance” value (yeast gene YJR143C) was 1.3 and the “The level of expressed mRNA in the presence of chemical substance/The level of expressed mRNA in the absence of chemical substance” value (yeast gene YJR148W) was 0.6.
